In patent publication US5863889A, “ICAM-1/LFA-1 short-chain peptides and method of using same” (The University of Kansas, priority 1996, dated 1999):

Legend:
[1] = system: Molt3 cells; assay: Homotypic adhesion assay (MDHC-induced clumping of T-cells); format: cell-based, human; set-up: key to Homotypic Adhesion Amount: Any sample having a score of "+++" or "++++" is considered to have a significant ability to modulate T-cell binding interaction; Any sample having a score of "+++" or "++++" is considered to have a significant ability to modulate T-cell binding interaction; conditions: 10 μM MDHC
Protocol: As before, the T-cells were Molt3 cells prepared in RPMI 1640 growth medium according to Example 2. An approximate 7 ml aliquot of the growth medium was centrifuged (Jouan Model GT422 at 1400 rpm for 6.5 minutes), and the supernatant fluid was decanted. The pellet was resuspended in the supernatant fluid at titer of about 1×10^6 cells/ml, with the excess supernatant fluid being retained for future resuspension of the peptides.
A 228 nmol quantity of the LJCRF-1 (Sequence ID No. 6) peptide described in Table 1 was diluted with the supernatant fluid to a 500 μl final volume, and filtered in microcentrifuge filter tubes (0.22 micron filter; 3500 rpm for 6 minutes). Serial dilution of the filtered peptide with supernatant fluid was conducted to yield five 125 μl peptide solutions to give respective concentrations of about 115 μM, 230 μM, 460 μM, 910 μM, and 1.82 mM. At each concentration, a 125 μl portion of the cell suspension was pipetted into each 125 μl portion of the peptide solutions to yield combined samples having a 250 μl volume. The 250 μl samples were seeded into individual wells in a 48-well tissue culture grade plate (from Costar of Cambridge, Md.) and incubated at 37° C. for 30 minutes. Each sample received 5 μl of 2,5-methyl dihydroxy cinnamate ("MDHC") for a 10 μM final concentration, and was subsequently incubated for about 10 hours at 37° C. MDHC induces intercellular clumping of human T-cells (Tibbetts, Butler, and Benedict, submitted) by activating the LFA/ICAM binding interaction between respective cells.
Pictures were taken of five random fields per sample using an Olympus photomicroscope having a 0.8 mm field at 400×magnification, and a 3.2 mm field of view at 100×magnification. The amount of clumping observed was quantified by determining the mean number of clumps per field ± a standard error.
FIGS. 5, 6, and 7 replicate photographs taken from exemplary peptide assays. FIG. 5 is a photograph of the control sample having no peptides and no MDHC added, from which essentially no clumping of cells is observed. […] Any sample having a score of "+++" or "++++" is considered to have a significant ability to modulate T-cell binding interaction. This is similar to results obtained by incubating similarly treated cells with antibody against either LFA or ICAM.
The homotypic adhesion assay assesses the actual ability of a candidate peptide to modulate the ability of T-cells to adhere with one another.

[2] = target: T1, LFA-1 (CD11a) (Homo sapiens, UniProt P20701); assay: Antibody binding assay (FACS): anti-LFA-1 mAb (mouse IgG anti-human CD11a) binding to Molt3 T-cells after peptide incubation; format: cell-based; conditions: for Fluorescence, % change from control of the medium fluorescence intensity: mAb CD11a, average ± standard error of runs
T1 construct: host or cells: Molt3 human T-cell leukemia line
T1 sequence (P20701 26-1170): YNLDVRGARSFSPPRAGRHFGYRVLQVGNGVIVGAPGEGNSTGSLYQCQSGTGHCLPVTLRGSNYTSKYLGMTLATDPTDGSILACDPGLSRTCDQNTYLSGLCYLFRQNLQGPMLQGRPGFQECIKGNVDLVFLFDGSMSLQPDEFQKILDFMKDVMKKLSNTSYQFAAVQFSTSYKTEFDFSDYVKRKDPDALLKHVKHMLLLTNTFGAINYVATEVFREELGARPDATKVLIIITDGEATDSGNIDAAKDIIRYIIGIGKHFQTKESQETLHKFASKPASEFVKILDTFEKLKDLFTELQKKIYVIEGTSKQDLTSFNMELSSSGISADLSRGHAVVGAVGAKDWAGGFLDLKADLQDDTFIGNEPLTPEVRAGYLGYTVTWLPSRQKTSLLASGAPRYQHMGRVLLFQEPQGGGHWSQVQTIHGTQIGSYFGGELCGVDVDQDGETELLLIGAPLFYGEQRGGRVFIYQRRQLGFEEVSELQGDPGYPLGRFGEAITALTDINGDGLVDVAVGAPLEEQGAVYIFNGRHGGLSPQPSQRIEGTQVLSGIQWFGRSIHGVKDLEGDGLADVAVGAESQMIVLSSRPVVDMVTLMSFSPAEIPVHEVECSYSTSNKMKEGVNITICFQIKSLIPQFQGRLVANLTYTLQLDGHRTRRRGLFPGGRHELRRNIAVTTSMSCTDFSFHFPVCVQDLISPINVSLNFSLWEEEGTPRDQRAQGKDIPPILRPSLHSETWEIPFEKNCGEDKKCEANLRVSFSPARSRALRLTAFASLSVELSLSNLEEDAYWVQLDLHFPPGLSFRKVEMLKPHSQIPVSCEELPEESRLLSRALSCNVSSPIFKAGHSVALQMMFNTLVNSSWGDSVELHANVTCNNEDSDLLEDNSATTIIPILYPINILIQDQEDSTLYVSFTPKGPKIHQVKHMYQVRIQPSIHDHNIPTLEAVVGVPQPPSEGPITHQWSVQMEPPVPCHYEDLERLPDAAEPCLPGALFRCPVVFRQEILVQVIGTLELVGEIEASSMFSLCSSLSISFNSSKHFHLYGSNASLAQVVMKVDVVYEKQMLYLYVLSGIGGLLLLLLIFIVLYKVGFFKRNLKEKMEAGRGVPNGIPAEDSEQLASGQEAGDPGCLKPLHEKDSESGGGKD
T1 sequence (P05107 23-769 partner): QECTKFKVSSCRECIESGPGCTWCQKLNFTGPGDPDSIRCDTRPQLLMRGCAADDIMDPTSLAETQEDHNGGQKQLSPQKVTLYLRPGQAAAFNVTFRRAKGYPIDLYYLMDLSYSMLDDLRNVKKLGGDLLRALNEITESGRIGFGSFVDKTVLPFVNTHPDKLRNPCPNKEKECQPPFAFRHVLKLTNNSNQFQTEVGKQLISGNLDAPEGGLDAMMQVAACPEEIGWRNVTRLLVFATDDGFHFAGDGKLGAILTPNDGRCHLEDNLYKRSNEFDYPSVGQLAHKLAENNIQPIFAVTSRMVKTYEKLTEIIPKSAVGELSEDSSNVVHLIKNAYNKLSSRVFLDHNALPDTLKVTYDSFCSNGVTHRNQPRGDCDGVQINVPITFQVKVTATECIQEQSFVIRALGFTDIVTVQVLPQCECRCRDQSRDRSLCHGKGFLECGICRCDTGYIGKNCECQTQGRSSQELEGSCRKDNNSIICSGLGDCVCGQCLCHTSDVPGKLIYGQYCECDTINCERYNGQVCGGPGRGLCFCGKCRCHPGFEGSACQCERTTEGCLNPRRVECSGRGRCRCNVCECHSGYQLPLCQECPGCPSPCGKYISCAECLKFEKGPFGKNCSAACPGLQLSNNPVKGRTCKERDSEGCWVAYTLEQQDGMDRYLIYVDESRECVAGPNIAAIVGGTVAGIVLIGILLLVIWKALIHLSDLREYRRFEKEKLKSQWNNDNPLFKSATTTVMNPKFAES
Protocol: A 1 ml quantity of the Molt3 inoculum was warmed to 37° C. and transferred by pipette into about 25 ml of a growth culture medium including RPMI 1640 lymphocyte growth medium (Fisher Scientific of St. Louis, Miss.) mixed with 10% by volume fetal calf serum, 100 units/ml penicillin, 100 μg/ml streptomycin and 2 mM glutamine. The inoculated culture was incubated for three to four days at 37° C. under a normal atmosphere having about 5% CO2 added thereto. This culture was capable of being maintained indefinitely by siphoning away the top (non-cell containing) layer and adding 50 ml (or more) of growth culture medium at intervals of three to four days.
An aqueous buffer solution including Dulbecco's phosphate buffered saline and bovine serum albumin ("-PBS/BSA solution") was prepared for use, and included a mixture of 200 mg KH2 PO4, 1.15 g Na2 HPO4, 100 mg CaCl2, 200 mg KCl, 100 mg MgCl2.6H2 O, 8 g NaCl, with distilled water added to a final 1 liter volume at room temperature, thus, forming a "PBS" solution of pH 7.4 to which was added 0.5% by weight bovine serum albumin.
An aliquot of about 7 ml was removed from the incubated culture medium and subjected to washing with the PBS/BSA solution. The washing procedure was initiated by placing the aliquot in a centrifuge (Model GT422 from Jouan, distributed Piruscio & Assoc. of Manchester, Miss.) at 1400 rpm for 6.5 minutes to separate the cells from the growth medium. The supernatant fluid was decanted, a 5 ml portion of PBS/BSA solution was transferred by pipette into the pellet, and the mixture was again centrifuged as before. The resulting supernatant fluid was decanted and the cells from the pellet were resuspended in PBS/BSA solution at a titer of about 1×10^6 cells/ml. A 500 μl portion of the solution containing the resuspended cells was placed in a microcentrifuge (Marathon 13K/M from Fisher Scientific of St. Louis, Miss.) at 3500 rpm for six minutes, to provide a washed pellet.
[…] The cells were incubated with the peptide cocktail at 37° C. for 45 minutes.
After incubation with the peptide cocktail, several antibodies were successively mixed into the incubated solution. A 75 μl portion of anti-IgM solution (a mixture of 10 μl of goat anti-human IgM stock purchased from Jackson Immuno Research of Westgrove, Pa.; and 65 μl of PBS/BSA solution) was added to the peptide cocktail for blocking of nonspecific binding of the secondary antibody. The resulting mixture was incubated for 10 minutes on ice. About 0.1 μg of a primary antibody including mouse IgG anti-human CD11a (purified according to conventional protocols at the University of Kansas Department of Pharmacology and Toxicology from an American Type Culture hybridoma cell line having Catalogue Number HB-202) was next stirred into the mixture, which was then incubated for 30 minutes at room temperature. The incubated mixture was placed in a microcentrifuge at 3500 rpm for six minutes to remove the cells from the mixture, and the cell pellet was washed two times by adding 500 μl aliquots of PBS/BSA solution and microfuging to remove non-bound antibodies from the cells as before. The resulting washed pellet was resuspended in 100 μl of a secondary antibody cocktail including 5 μl of fluorescein isothiocyanate ("FITC") labeled goat anti-mouse IgG (from CALTAG of South San Francisco, Calif.) and 95 μl of PBS/BSA solution. The resulting solution was incubated for 30 minutes at room temperature in the dark.
The incubated solution including the secondary antibody cocktail was microfuged at 3500 rpm for six minutes to remove the cells from the solution, and the cell pellet was washed two times with 500 μl portions of PBS/BSA solution, as before, to remove unbound antibodies. […]

SC-3-111: ICAM-1 based short-chain peptide, Sequence ID No. 10 (QTSVSPSKVI)
Homotypic Adhesion Effect ([1]; peptide 230 μM): Block | Homotypic Adhesion Effect ([1]; peptide 460 μM): Block | Homotypic Adhesion Amount ([1]; peptide 910 μM): ++++ | Homotypic Adhesion Effect ([1]; peptide 910 μM): Block | Homotypic Adhesion Amount ([1]; peptide 1820 μM): +++ | Homotypic Adhesion Effect ([1]; peptide 1820 μM): Block | Fluorescence, % change from control of the medium fluorescence intensity ([2]; peptide 2275 μM): -12 ± 4% | Fluorescence, % change from control of the medium fluorescence intensity ([2]; peptide 4550 μM, negative = blocking): -29 ± 2% | blocking efficiency ([2]; single above-average run (FIGS. 2, 3), peptide 4550 μM, anti-CD11a): 51% | sample median peak fluorescence intensity value ([2]; single run of FIG. 2 (control 264.41), anti-CD11a): 128.74 | % change of median peak vs control ([2]; single run of FIG. 2, peptide 4550 μM, anti-CD11a): -51%
